Results: patent US9896481B2, “Modified mini-hepcidin peptides and methods of using thereof” (priority 2011, dated 2018)
Non-standard residues stand in square brackets, D forms with d. *: point of attachment. Ida = 2,2'-azanediyldiacetic acid, O=C(O)CNCC(=O)*; Ida(NHPal) = Ida cap bearing a palmityl amide; Dip = N[C@H](C(=O)O)C(c1ccccc1)c1ccccc1; β3hP = O=C(O)C[C@@H]1CCCN1; Ahx = NCCCCCC(=O)O

Columns and labels:
Assay in all cases: Activity at 20 nmoles/mouse: serum iron 4 hours after injection versus solvent (Tables 3 and 4)
Format in all cases: in vivo
mouse [1] = system: mouse; parameters: key: Y: “Active” means that at 4 hours after injection serum iron in peptide-injected mice decreased statistically significantly (p < 0.05) compared to solvent-injected mice; Y*: Exhibits detectable and reproducible activity at about 50% lower than the most active compounds in Table 3 and 4; conditions: Table 3; subcutaneous
mouse [2] = system: mouse; parameters: key: Y: “Active” means that at 4 hours after injection serum iron in peptide-injected mice decreased statistically significantly (p < 0.05) compared to solvent-injected mice; Y*: Exhibits detectable and reproducible activity at about 50% lower than the most active compounds in Table 3 and 4; conditions: Table 3, intraperitoneal
mouse [3] = system: mouse; parameters: key: Y: “Active” means that the injection of the compound resulted in statistically significant (p < 0.05) lowering of serum iron compared to solvent injection when measured 4 hours after administration; Y*: detectable and reproducible activity but at least 50% lower than other active compounds in Table 4; conditions: Table 4; intraperitoneal; serum iron 4 h after administration

Compound	Active @ 20 nmoles/mouse by SQ (mouse [1])	Active @ 20 nmoles/mouse IP (mouse [2])	Active @ 20 nmoles/mouse IP (mouse [3])
CCCCCCCCCCCCCCCC(=O)NCCCOCCOCCOCCCNC(=O)COCCOCCOCCNC(=O)C[C@H](Cc1ccccc1)NC(=O)[C@H](CCCNC(=N)N)NC(=O)[C@H](CS)NC(=O)[C@H](CCCNC(=N)N)NC(=O)C[C@@H]1CCCN1C(=O)[C@@H](NC(=O)[C@H](Cc1c[nH]cn1)NC(=O)[C@@H](NC(=O)CNCC(=O)O)[C@@H](C)O)C(c1ccccc1)c1ccccc1 [PR61]	Y (also	Y (also	
PR82: SEQ ID NO: 101; Ida-T-H-Dpa-bhPro-R-C-R-W-Ahx-Ida(NHPal) (Ida-TH[Dip][β3hP]RCRW-{Ahx-Ida(NHPal)})			Y
